{"source": "paper PMC7523345", "about": "(Investigational new drugs, 2018)", "assay": "Phase I dose escalation study: safety, tolerability, DLT and MTD", "assay_type": "in vivo", "note": "“Also recorded” adds a separate entry of the source.", "data": [{"smiles": "Cc1cccc2c1NC(=O)[C@@H](NC(=O)[C@H](CCC(F)(F)F)[C@H](CCC(F)(F)F)C(N)=O)N=C2c1cccc(F)c1", "note": "[BMS-986115]", "values": [{"measurement": "Hypokalaemia (drug related AE, Grade 3 and 4)", "setting": "Arm B BIW 4 mg (N = 2)", "value": "0 n (%)"}, {"measurement": "Hypokalaemia (drug related AE, all grades)", "setting": "Arm B BIW 4 mg (N = 2)", "value": "1 (50) n (%)"}, {"measurement": "Hyponatraemia (drug related AE, Grade 3 and 4)", "setting": "Arm B BIW 4 mg (N = 2)", "value": "0 n (%)"}, {"measurement": "Hyponatraemia (drug related AE, all grades)", "setting": "Arm B BIW 4 mg (N = 2)", "value": "0 n (%)"}, {"measurement": "Hypophosphataemia (drug related AE, Grade 3 and 4)", "setting": "Arm B BIW 4 mg (N = 2)", "value": "1 (50) n (%)"}, {"measurement": "Hypophosphataemia (drug related AE, all grades)", "setting": "Arm B BIW 4 mg (N = 2)", "value": "1 (50) n (%)"}, {"measurement": "Ileus (drug related AE, Grade 3 and 4)", "setting": "Arm B BIW 4 mg (N = 2)", "value": "0 n (%)"}, {"measurement": "Increased upper airway secretion (drug related AE, all grades)", "setting": "Arm B BIW 4 mg (N = 2)", "value": "1 (50) n (%)"}, {"measurement": "Laryngeal pain (drug related AE, all grades)", "setting": "Arm B BIW 4 mg (N = 2)", "value": "0 n (%)"}, {"measurement": "Leucocytosis (drug related AE, Grade 3 and 4)", "setting": "Arm B BIW 4 mg (N = 2)", "value": "0 n (%)"}, {"measurement": "Mouth ulceration (drug related AE, all grades)", "setting": "Arm B BIW 4 mg (N = 2)", "value": "0 n (%)"}, {"measurement": "Nausea (drug related AE, Grade 3 and 4)", "setting": "Arm B BIW 4 mg (N = 2)", "value": "0 n (%)"}, {"measurement": "Nausea (drug related AE, all grades)", "setting": "Arm B BIW 4 mg (N = 2)", "value": "0 n (%)"}, {"measurement": "Pruritus (drug related AE, Grade 3 and 4)", "setting": "Arm B BIW 4 mg (N = 2)", "value": "0 n (%)"}, {"measurement": "Pruritus (drug related AE, all grades)", "setting": "Arm B BIW 4 mg (N = 2)", "value": "1 (50) n (%)"}, {"measurement": "Pulmonary embolism (drug related AE, Grade 3 and 4)", "setting": "Arm B BIW 4 mg (N = 2)", "value": "0 n (%)"}, {"measurement": "Rash (drug related AE, all grades)", "setting": "Arm B BIW 4 mg (N = 2)", "value": "0 n (%)"}, {"measurement": "Rash maculopapular (drug related AE, all grades)", "setting": "Arm B BIW 4 mg (N = 2)", "value": "1 (50) n (%)"}, {"measurement": "Sinusitis (drug related AE, all grades)", "setting": "Arm B BIW 4 mg (N = 2)", "value": "0 n (%)"}, {"measurement": "Urticaria (drug related AE, Grade 3 and 4)", "setting": "Arm B BIW 4 mg (N = 2)", "value": "0 n (%)"}, {"measurement": "Vision blurred (drug related AE, all grades)", "setting": "Arm B BIW 4 mg (N = 2)", "value": "0 n (%)"}, {"measurement": "Vomiting (drug related AE, Grade 3 and 4)", "setting": "Arm B BIW 4 mg (N = 2)", "value": "0 n (%)"}, {"measurement": "Vomiting (drug related AE, all grades)", "setting": "Arm B BIW 4 mg (N = 2)", "value": "0 n (%)"}, {"measurement": "Weight decreased (drug related AE, all grades)", "setting": "Arm B BIW 4 mg (N = 2)", "value": "0 n (%)"}, {"measurement": "Description of DLT", "setting": "Arm B BIW 8 mg", "value": "Gr 3 diarrhoea; Gr 3 nausea/dehydration/anorexia with Gr 2 fatigue; also recorded: G3 diarrhoea; also recorded: G3 nausea/dehydration/anorexia"}, {"measurement": "Description of study drug toxicity that led to treatment discontinuation", "setting": "Arm B BIW 8 mg", "value": "G3 Diarrhoea (N = 1); also recorded: G3 Dehydration and anorexia (N = 1)"}, {"measurement": "Abdominal distension (drug related AE, all grades)", "setting": "Arm B BIW 8 mg (N = 8)", "value": "0 n (%)"}, {"measurement": "Abdominal pain (drug related AE, Grade 3 and 4)", "setting": "Arm B BIW 8 mg (N = 8)", "value": "0 n (%)"}, {"measurement": "Abdominal pain (drug related AE, all grades)", "setting": "Arm B BIW 8 mg (N = 8)", "value": "0 n (%)"}, {"measurement": "Blood creatinine increased (drug related AE, all grades)", "setting": "Arm B BIW 8 mg (N = 8)", "value": "1 (13) n (%)"}, {"measurement": "Colitis (drug related AE, Grade 3 and 4)", "setting": "Arm B BIW 8 mg (N = 8)", "value": "0 n (%)"}, {"measurement": "Cough (drug related AE, Grade 3 and 4)", "setting": "Arm B BIW 8 mg (N = 8)", "value": "0 n (%)"}, {"measurement": "Cough (drug related AE, all grades)", "setting": "Arm B BIW 8 mg (N = 8)", "value": "1 (13) n (%)"}, {"measurement": "Decreased Appetite (drug related AE, Grade 3 and 4)", "setting": "Arm B BIW 8 mg (N = 8)", "value": "1 (13) n (%)"}, {"measurement": "Decreased Appetite (drug related AE, all grades)", "setting": "Arm B BIW 8 mg (N = 8)", "value": "5 (63) n (%)"}, {"measurement": "Dehydration (drug related AE, Grade 3 and 4)", "setting": "Arm B BIW 8 mg (N = 8)", "value": "1 (13) n (%)"}, {"measurement": "Dehydration (drug related AE, all grades)", "setting": "Arm B BIW 8 mg (N = 8)", "value": "2 (25) n (%)"}, {"measurement": "Dermatitis acneiform (drug related AE, all grades)", "setting": "Arm B BIW 8 mg (N = 8)", "value": "0 n (%)"}, {"measurement": "Diarrhoea (drug related AE, Grade 3 and 4)", "setting": "Arm B BIW 8 mg (N = 8)", "value": "2 (25) n (%)"}, {"measurement": "Diarrhoea (drug related AE, all grades)", "setting": "Arm B BIW 8 mg (N = 8)", "value": "7 (88) n (%)"}, {"measurement": "Dry mouth (drug related AE, all grades)", "setting": "Arm B BIW 8 mg (N = 8)", "value": "1 (13) n (%)"}, {"measurement": "Dry skin (drug related AE, all grades)", "setting": "Arm B BIW 8 mg (N = 8)", "value": "2 (25) n (%)"}, {"measurement": "Dysgeusia (drug related AE, all grades)", "setting": "Arm B BIW 8 mg (N = 8)", "value": "1 (13) n (%)"}, {"measurement": "Dyspepsia (drug related AE, all grades)", "setting": "Arm B BIW 8 mg (N = 8)", "value": "0 n (%)"}, {"measurement": "Dysphonia (drug related AE, all grades)", "setting": "Arm B BIW 8 mg (N = 8)", "value": "1 (13) n (%)"}, {"measurement": "Fatigue (drug related AE, Grade 3 and 4)", "setting": "Arm B BIW 8 mg (N = 8)", "value": "0 n (%)"}, {"measurement": "Fatigue (drug related AE, all grades)", "setting": "Arm B BIW 8 mg (N = 8)", "value": "4 (50) n (%)"}, {"measurement": "Flatulence (drug related AE, all grades)", "setting": "Arm B BIW 8 mg (N = 8)", "value": "2 (25) n (%)"}, {"measurement": "Hypocalcaemia (drug related AE, Grade 3 and 4)", "setting": "Arm B BIW 8 mg (N = 8)", "value": "1 (13) n (%)"}, {"measurement": "Hypocalcaemia (drug related AE, all grades)", "setting": "Arm B BIW 8 mg (N = 8)", "value": "1 (13) n (%)"}, {"measurement": "Hypokalaemia (drug related AE, Grade 3 and 4)", "setting": "Arm B BIW 8 mg (N = 8)", "value": "0 n (%)"}, {"measurement": "Hypokalaemia (drug related AE, all grades)", "setting": "Arm B BIW 8 mg (N = 8)", "value": "2 (25) n (%)"}, {"measurement": "Hyponatraemia (drug related AE, Grade 3 and 4)", "setting": "Arm B BIW 8 mg (N = 8)", "value": "1 (13) n (%)"}, {"measurement": "Hyponatraemia (drug related AE, all grades)", "setting": "Arm B BIW 8 mg (N = 8)", "value": "1 (13) n (%)"}, {"measurement": "Hypophosphataemia (drug related AE, Grade 3 and 4)", "setting": "Arm B BIW 8 mg (N = 8)", "value": "4 (50) n (%)"}, {"measurement": "Hypophosphataemia (drug related AE, all grades)", "setting": "Arm B BIW 8 mg (N = 8)", "value": "5 (63) n (%)"}, {"measurement": "Ileus (drug related AE, Grade 3 and 4)", "setting": "Arm B BIW 8 mg (N = 8)", "value": "0 n (%)"}, {"measurement": "Increased upper airway secretion (drug related AE, all grades)", "setting": "Arm B BIW 8 mg (N = 8)", "value": "2 (25) n (%)"}, {"measurement": "Laryngeal pain (drug related AE, all grades)", "setting": "Arm B BIW 8 mg (N = 8)", "value": "0 n (%)"}, {"measurement": "Leucocytosis (drug related AE, Grade 3 and 4)", "setting": "Arm B BIW 8 mg (N = 8)", "value": "1 (13) n (%)"}, {"measurement": "Mouth ulceration (drug related AE, all grades)", "setting": "Arm B BIW 8 mg (N = 8)", "value": "1 (13) n (%)"}, {"measurement": "Nausea (drug related AE, Grade 3 and 4)", "setting": "Arm B BIW 8 mg (N = 8)", "value": "1 (13) n (%)"}, {"measurement": "Nausea (drug related AE, all grades)", "setting": "Arm B BIW 8 mg (N = 8)", "value": "6 (75) n (%)"}, {"measurement": "Pruritus (drug related AE, Grade 3 and 4)", "setting": "Arm B BIW 8 mg (N = 8)", "value": "0 n (%)"}, {"measurement": "Pruritus (drug related AE, all grades)", "setting": "Arm B BIW 8 mg (N = 8)", "value": "2 (25) n (%)"}, {"measurement": "Pulmonary embolism (drug related AE, Grade 3 and 4)", "setting": "Arm B BIW 8 mg (N = 8)", "value": "0 n (%)"}, {"measurement": "Rash (drug related AE, all grades)", "setting": "Arm B BIW 8 mg (N = 8)", "value": "3 (38) n (%)"}, {"measurement": "Rash maculopapular (drug related AE, all grades)", "setting": "Arm B BIW 8 mg (N = 8)", "value": "2 (25) n (%)"}, {"measurement": "Sinusitis (drug related AE, all grades)", "setting": "Arm B BIW 8 mg (N = 8)", "value": "0 n (%)"}, {"measurement": "Urticaria (drug related AE, Grade 3 and 4)", "setting": "Arm B BIW 8 mg (N = 8)", "value": "0 n (%)"}]}]}
